Assay results as given in US8293240B2, “Method of treating drug-resistant cancer” (The Regents of the University of Colorado, priority 2004, dated 2012).

Legend:
Format in all cases: cell-based
L1210 DDP cells = experiment: mitochondrial membrane potential (MitoTracker), L1210 DDP; conditions: 24 hours of incubation, FIG. 11
Method: (§1) Flow Cytometry. Cells were harvested, counted, and resuspended at 10^6 cells/100 μl of PBS containing 2.5% fetal calf serum in preparation for flow cytometric analysis. Cells were stained for intracellular H202 using 6-carboxy-2′,7′-dichlorodihydrofluorescein diacetate (DCF-DA, Molecular Probes, Eugene, Oreg.). Briefly, cells were incubated at 37° with 1 mM DCF-DA for 20 minutes, washed twice in PBS containing 2.5% fetal calf serum and analyzed flow cytometrically. Mitochondrial membrane potential was assessed using Mitotracker Red (CM-H2XROS, Molecular Probes, Eugene, Oreg.). […] The cells were incubated at 37° for 20 minutes, washed twice in PBS containing 2.5% fetal calf serum and analyzed flow cytometrically. Data were acquired on a Coulter Elite Epics or Excel flow cytometer (Coulter, Hialeah, Fla.) and analyzed with CellQuest software, (Becton Dickinson, San Jose, Calif.). […] Each sample population was classified for cell size (forward scatter) and complexity (side scatter), gated on a population of interest and evaluated using 5,000 cells. […]
(§2) We measured the effects of etomoxir on metabolism by measuring mitochondrial membrane potential with a fluorescent dye (Mitotracker Red, Molecular Probes, Eugene, Oreg.) which fluoresces as a function of mitochondrial potential. […]

[1] = tested on: A-204 human rhabdomyosarcoma cells; experiment: cell surface UCP2 expression on A-204 cells; conditions: A-204, 24, 48, & 72 hours, FIG. 26
Method: (§3) Cell Surface Staining. Non-permeabilized cells were stained with antibodies to the cell surface receptors Fas (CD95) (Pharmingen) or with antibodies to uncoupling proteins (anti-UCP2 antibody) (Alpha Diagnostic International). Antibodies for both the isotype control and actual stain were added to the cell suspension, mixed, and then placed on ice for and incubation of 25 minutes in the dark. Subsequently the cells were centrifuged at 300×g for 5 minutes and the supernatant removed. The cells were washed one time with 100 μL of PBS/2.5% FBS and then transferred into flow cyotmetric tubes containing 500 μL of PBS/2.5% FBS for analysis.
A204 human rhabdomyosarcoma cells were cultured at a concentration of 0.5 to 1 million cells per ml. Cells were untreated or treated with etomoxir at concentrations indicated in FIG. 24 for 24, 48, & 72 hours. Cells were harvested and analyzed by flow cytometry. Dot plots are shown in FIG. 24 as functions of live versus dead cells. […] Five thousand cells were assessed for forward scatter (FS), as a function of cell size, versus side scatter (SS), as a function of cellular granularity. […]
Cells were untreated or treated with etomoxir at the concentration indicated in FIG. 26 at the indicated concentration for 24, 48, & 72 hours. Cells were harvested, stained with fluorochrome conjugated with anti-UCP2 antibody and analyzed by flow cytometry.

[2] = tested on: RD cells (rhabdomyosarcoma cells-not drug resistant); experiment: percent death of RD cells (flow cytometry, live versus dead)
Method: The cells were cultured at a concentration of 0.5 to 1 million cells per ml. Cells were untreated or treated with or 2-deoxy-D-glucose and/or etomoxir and/or antibodies to UCP2 and used at dilutions or concentrations as indicated on the figure. The cells were cultured in the presence or absence of etomoxir at 100 micrograms/ml for 24 hours followed by treatment with antibody as indicated for an additional 24 or 48 hours (i.e. totals of 48 hours or 72 hours respectively). Cells were harvested and analyzed by flow cytometry. Each dot on the dot plot represents one cell. Five thousand cells were assessed for forward scatter (FS), as a function of cell size, versus side scatter (SS), as a function of cellular granularity. The upper elipse represents live cells by these criterion and the lower elipse in each dot plot represents the dead cells.
Gating is a tool provided by Cell Quest software and allows for the analysis of a certain population of cells. Gating around both the live and dead cell populations gave a percent of the cell numbers that was in each population. After the gates were drawn, a percent value of dead cells was calculated by taking the number of dead cells divided by the number of total cells and multiplying by one hundred.
Referring to FIGS. 29 and 30, RD cells (rhabdomyosarcoma cells-not drug resistant), cultured as described above under “Materials and Methods” were untreated or treated with etomoxir, with 2-deoxy-D-glucose, or with a combination of etomoxir and 2-deoxy-D-glucose, at concentrations indicated in FIG. 29 for 24 hours. Cells were harvested and analyzed by flow cytometry.
Referring to FIGS. 33 and 34, RD cells, cultured as described in Example 22, were untreated or treated with etomoxir, with 2-deoxy-D-glucose, or with a combination of etomoxir and 2-deoxy-D-glucose, at concentrations indicated in FIG. 33 for 48 hours. Cells were harvested and analyzed by flow cytometry.
Referring to FIGS. 37 and 38, RD cells, cultured as described in Example 22, were treated with anti-UCP2 antibody and otherwise untreated or treated simultaneously with etomoxir, 2-deoxy-D-glucose, or both, at concentrations indicated in FIG. 37 for 48 hours. Cells were harvested and analyzed by flow cytometry.

L1210 cells = experiment: DCFDA staining (reactive intermediates), L1210; conditions: L1210, 24 hours of incubation, FIG. 12A
Method: as §1, §2

[3] = tested on: drug sensitive L1210 cells; experiment: cell-surface Fas expression by flow cytometry, L1210
Method: as §3
Geometric Mean Fluorescence. When analyzing data on Cell Quest software, a geometric mean value will be given for each histogram plotted. Once the stained sample was plotted against the control (isotype or unstained), geometric mean fluorescence values were obtained for both histogram peaks. The stained control sample value was subtracted from sample to identify the actual fluorescence of the stained sample over that of the control.
Drug sensitive L1210 cells and drug resistant L1210/DDP cells were cultured with etomoxir for 24 hours (Tx indicates treatment with etomoxir). The level of cell-surface Fas was determined using fluorochrome conjugated anti-Fas antibodies and flow cytometry. The Fas levels are measured relative to a control for staining artifacts. […]

Compound: CCOC(=O)C1(CCCCCCOc2ccc(Cl)cc2)CO1 (stereo not shown) [etomoxir, 2-(6-(4-chlorophenoxy)-hexyl)-oxirane-2-carboxylic acid ethyl ester]
- mitochondrial membrane potential (MitoTracker) (L1210 DDP cells): increase the mitochondrial membrane potential
- cell surface UCP2 expression in the live cells [1]: time dependent “fold” increases
- percent of cell deaths ([2]; RD cells after 24 hours): 57%
- percent of cell deaths ([2]; RD cells after 48 hours): 64%
- free radicals (reactive intermediates), DCFDA staining (L1210 cells): increase in free radicals
- cell-surface Fas expression ([3]; L1210, cultured with etomoxir for 24 hours): significant increases in cell surface Fas
- Fas expression, combination with methotrexate ([3]; L1210, etomoxir with methotrexate, FIG. 8): increases the methotrexate-induced increases in Fas
